Experimental data from PMC8715119, “Second-generation non-hematopoietic erythropoietin-derived peptide for neuroprotection” (Redox Biology, 2021).
Blank lines part the entries; values can stand above or below the molecule they belong to.

Key:
[1] = system: undifferentiated PC12 cells; assay: Cell proliferation (MTS) under low serum; type: cell-based, rat; details: 0.5% fetal bovine serum, 48 h, reEPO 10 IU/ml, peptides 10 ng/ml, n = 5, Fig. 4c
Description: PC12 cells (#CRL-1721, ATCC, USA), a rat pheochromocytoma cell line derived from the adrenal medulla (#CRL-1721, ATCC, USA), were seeded on a dish, which was coated by poly L-lysine (0.01%; Sigma Chemical Co., USA), and grown in RPMI 1640 medium (#11875093, Gibco, USA), supplemented with 10% heat-inactivated horse serum (#26050088, Gibco, USA), 5% fetal bovine serum (FBS) (#SH30919.03, Hyclone, USA), and 1% penicillin/streptomycin at 37°C with 5% CO2. […]
Cell viability was evaluated by 3-[(4,5-dimethylthiazol-2-yl)-5,3-carboxymethoxyphenyl]-2-(4-sulfophenyl)-2H tetrazolium, inner salt (MTS) reduction assay (CellTiter 96 Aqueous One Solution Cell Proliferation Assay, Promega, Madison, WI, USA). […] The intracellular soluble formazan produced by cellular reduction of the MTS was determined by recording the absorbance at 490 nm using a microplate reader (VersaMax, Molecular Devices, USA). Cell proliferation was also evaluated by the MTS assay. […] The next day, the initial cell number was counted; after 48 h, under low FBS concentration (0.5%), with or without reEPO and peptides, cell number was measured by the MTS assay.

[2] = system: differentiated neuronal PC12 cells; assay: Cellular ROS level by H2DCFDA under H2O2; type: cell-based, rat; details: H2O2 for 6 h; H2DCFDA staining; n = 5; Fig. 4b
Description: (§1) PC12 cells (#CRL-1721, ATCC, USA), a rat pheochromocytoma cell line derived from the adrenal medulla (#CRL-1721, ATCC, USA), were seeded on a dish, which was coated by poly L-lysine (0.01%; Sigma Chemical Co., USA), and grown in RPMI 1640 medium (#11875093, Gibco, USA), supplemented with 10% heat-inactivated horse serum (#26050088, Gibco, USA), 5% fetal bovine serum (FBS) (#SH30919.03, Hyclone, USA), and 1% penicillin/streptomycin at 37°C with 5% CO2. For neuronal differentiation, PC12 cells were plated at a density of 1.25x10^3 cell/cm^2 into 96-well plates coated with collagen 1 (#354236, BD Biosciences, USA) and grown in RPMI 1640 medium supplemented with 50 ng/ml nerve growth factor (NGF) (BD Biosciences, USA) and 0.5% FBS for 10 days. The NGF-supplemented media was replaced with fresh media every 3 days during neuronal differentiation.
The cellular ROS level was measured using 2′,7′-dichlorodihydrofluorescein diacetate (H2DCFDA) (#D399, Invitrogen, USA). The cells were incubated with 5 μM H2DCFDA in PBS for 30 min, washed with PBS, and then resuspended in the medium for 2 h. After treatment of H2O2 without or with reEPO, or peptide, we monitored the oxidative stress by measuring the fluorescence intensities of H2DCFDA by using excitation and emission wavelengths of 485 nm and 535 nm, respectively.

[3] = system: differentiated neuronal PC12 cells; assay: Cell viability (MTS) under H2O2-induced oxidative stress; type: cell-based, rat; details: 300 μM H2O2 for 24 h; peptides 1 ng/ml, reEPO 0.5 IU/ml; MTS; n = 3; Fig. 1c
Description: as §1
Cell viability was evaluated by 3-[(4,5-dimethylthiazol-2-yl)-5,3-carboxymethoxyphenyl]-2-(4-sulfophenyl)-2H tetrazolium, inner salt (MTS) reduction assay (CellTiter 96 Aqueous One Solution Cell Proliferation Assay, Promega, Madison, WI, USA). Briefly, differentiated neuronal-PC12 cells were treated with H2O2 (300 μM) with or without reEPO and peptides for 24 h. The PC12 cells were washed with PBS; 20 ul MTS solution was added to each well with 100 μl PBS, and the cells were incubated for 3 h at 37°C and 5% CO2. The intracellular soluble formazan produced by cellular reduction of the MTS was determined by recording the absorbance at 490 nm using a microplate reader (VersaMax, Molecular Devices, USA). Cell proliferation was also evaluated by the MTS assay. Undifferentiated PC12 cells were seeded into a 96-well plate (5x10^4 cells/well). The next day, the initial cell number was counted; after 48 h, under low FBS concentration (0.5%), with or without reEPO and peptides, cell number was measured by the MTS assay.

EphB4 (Homo sapiens) = EphB4 (Homo sapiens) (UniProt P54760); details: cited from earlier work
[4] = as previously reported; cited from earlier work
Description: (§2) All peptides including ML1, ML1-c1, ML1-c2, ML1-c3, ML1-h1, ML1-h2, and ML1-h3 were synthesized as monomers by solid-phase peptide synthesis. […] To evaluate the purity and concentration of the peptides, LC/MSD (HP 1100 series) and HPLC analyses (SHIMADZU prominence HPLC) were performed. We obtained peptides having >95% purity and then dissolved with DMSO or water as a high ...

EPOR = details: as previously reported; cited from earlier work
Description: as §2

[5] = molecular target: T1, Soluble recombinant human EPOR-Fc chimera protein (human, UniProt P19235 25-250); assay: SPR; Reichert SR 7500 C; EPOR-Fc covalently immobilised by amine coupling on a carboxymethylated dextran chip; peptides at 5, 2.5 and 1.25 uM flowed at 5 ul/min, in duplicate; regeneration with 25 mM acetic acid; details: both partners purified
T1 construct: erythropoietin receptor (EPOR), human, soluble form fused to Fc; the discussion says the SPR analysis was based on only the extracellular domain of EPOR; also called erythropoietin receptor; source: bought: R&D Systems (#963-ER)
T1 sequence (looked up): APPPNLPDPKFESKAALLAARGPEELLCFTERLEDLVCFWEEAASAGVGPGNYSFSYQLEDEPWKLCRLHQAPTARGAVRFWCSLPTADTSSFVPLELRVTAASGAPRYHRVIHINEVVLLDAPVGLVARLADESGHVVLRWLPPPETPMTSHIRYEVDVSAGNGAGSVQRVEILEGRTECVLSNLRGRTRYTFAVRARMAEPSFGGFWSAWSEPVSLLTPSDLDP

Sequence of EphB4 (Homo sapiens) (P54760 16-539): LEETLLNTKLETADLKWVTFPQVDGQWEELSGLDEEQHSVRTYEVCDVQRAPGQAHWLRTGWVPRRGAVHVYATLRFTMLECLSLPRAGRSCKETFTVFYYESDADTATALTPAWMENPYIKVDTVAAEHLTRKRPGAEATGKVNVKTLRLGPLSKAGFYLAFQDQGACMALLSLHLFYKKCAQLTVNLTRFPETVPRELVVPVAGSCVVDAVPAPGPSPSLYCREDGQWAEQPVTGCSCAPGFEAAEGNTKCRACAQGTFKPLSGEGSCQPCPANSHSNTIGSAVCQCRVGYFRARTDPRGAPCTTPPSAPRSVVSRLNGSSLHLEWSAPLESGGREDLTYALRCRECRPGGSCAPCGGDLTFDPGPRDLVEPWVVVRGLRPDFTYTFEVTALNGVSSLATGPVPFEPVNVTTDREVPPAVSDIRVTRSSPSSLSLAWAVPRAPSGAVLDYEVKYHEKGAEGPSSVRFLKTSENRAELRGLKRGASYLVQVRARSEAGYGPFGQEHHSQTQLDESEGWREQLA

Molecule: ML1: monomeric peptide spanning 118Leu-140Gly of helix C of EPO; prototype for second-generation EPO-derived peptide (LQLHVDKAVSGLRSLTTLLRALG)
Cell proliferation (cell number) [1]: did not induce proliferation
Level of reactive oxygen species (ROS) induced by H2O2 [2]: decreased the levels of reactive oxygen species (ROS)
Cell viability (neuroprotective effect) against H2O2 [3]: a better neuroprotective effect than reEPO

Molecule: EPO (from UniProt P01588)
Kd (EphB4 (Homo sapiens)): 880 nM

Molecule: AMELSGRTLGLILKLRQSATL [negative control peptide]
Effect on cell survival and proliferation [4]: unaffected cell survival and proliferation
Binding to EPOR (EPOR): did not bind to EPOR

Molecule: ML4: monomeric peptide spanning 127Ser-140Gly of helix C of EPO
Cell viability (neuroprotective effect) against H2O2 [3]: showed a neuroprotective effect

binding result [5]: binds
B1: ML1 (peptide, UniProt P01588 118-140, looked up)
peptide: LQLHVDKAVSGLRSLTTLLRALG
notes: Monomeric peptide; also called ML1 prototype; source: synthetic peptide (solid-phase synthesis, monomer, >95% purity; bought: Peptron Inc.)
